{"source": "ChEMBL document CHEMBL4616726", "about": "“Optimization of the Linker Domain in a Dimeric Compound that Degrades an r(CUG) Repeat Expansion in Cells” (J Med Chem, 2020)", "key": {"r(CUG) repeat expansion [1]": {"tested_on": "r(CUG) repeat expansion", "test": "Induction of 5'-biotinylated r(CUG)12 RNA repeat (unknown origin) degradation assessed as disruption of r(CUG)12-MBNL1 complex formation incubated for 15 mins by TR-FRET assay", "format": "nucleic-acid assay"}, "[2]": {"test": "Drug localization in nucleus of human DM1-patient derived myotubes by live-cell fluorescence microscopy", "format": "ADME, subcellular"}, "r(CUG) repeat expansion [3]": {"tested_on": "r(CUG) repeat expansion", "test": "Induction of r(CUG)exp RNA repeat in human DM1-patient derived myotubes assessed as improvement in MBNL1 exon 5 splicing defect at 5 uM by RT-qPCR analysis relative to control", "format": "nucleic-acid assay"}, "[4]": {"test": "Drug localization in cytoplasm of human DM1-patient derived myotubes by live-cell fluorescence microscopy", "format": "ADME, subcellular"}, "[5]": {"test": "Induction of DNA damage in human DM1-patient derived myotubes at 1 uM assessed as induction of DNA double strand breaks by measuring gamma-H2AX foci formation by immunofluorescence assay relative to control", "format": "functional"}, "[6]": {"test": "Toxicity in human DM1-patient derived myotubes at 5 uM"}, "[7]": {"test": "Drug uptake in human DM1-patient derived myotubes by fluorescence based assay", "format": "ADME", "details": "in vitro"}}, "note": "The source made the active and inactive calls. The rule behind the calls is not given here.", "data": [{"smiles": "CN1CCN(c2ccc3[nH]c(-c4ccc5[nH]c(-c6cccc(OCCCC(=O)N(C)CCCCN(CC(N)=O)C(=O)[C@@H]7CCCN7C(=O)[C@@H]7CCCN7C(=O)[C@@H]7CCCN7C(=O)[C@@H]7CCCN7C(=O)CCCOc7cccc(-c8nc9ccc(-c%10nc%11ccc(N%12CCN(C)CC%12)cc%11[nH]%10)cc9[nH]8)c7)c6)nc5c4)nc3c2)CC1", "values": [{"measurement": "Activity", "setting": "r(CUG) repeat expansion [1]", "value": "Active"}]}, {"smiles": "CN1CCN(c2ccc3[nH]c(-c4ccc5[nH]c(-c6cccc(OCCCC(=O)N(C)CCCCN(CC(N)=O)C(=O)[C@@H]7CCCN7C(=O)[C@@H]7CCCN7C(=O)[C@@H]7CCCN7C(=O)CCCOc7cccc(-c8nc9cc(-c%10nc%11cc(N%12CCN(C)CC%12)ccc%11[nH]%10)ccc9[nH]8)c7)c6)nc5c4)nc3c2)CC1", "values": [{"measurement": "Activity", "setting": "r(CUG) repeat expansion [1]", "value": "Active"}]}, {"smiles": "CN1CCN(c2ccc3[nH]c(-c4ccc5[nH]c(-c6cccc(OCCCC(=O)N(C)CCCCN(CC(N)=O)C(=O)[C@H](Cc7ccc(O)cc7)N(C)C(=O)[C@H](Cc7ccc(O)cc7)N(C)C(=O)[C@H](Cc7ccc(O)cc7)N(C)C(=O)[C@H](Cc7ccc(O)cc7)N(C)C(=O)CCCOc7cccc(-c8nc9ccc(-c%10nc%11ccc(N%12CCN(C)CC%12)cc%11[nH]%10)cc9[nH]8)c7)c6)nc5c4)nc3c2)CC1", "values": [{"measurement": "Activity", "setting": "r(CUG) repeat expansion [1]", "value": "Active"}]}, {"smiles": "C[C@@H](NC(=O)CCCOc1cccc(-c2nc3ccc(-c4nc5ccc(N6CCN(C)CC6)cc5[nH]4)cc3[nH]2)c1)C(=O)N[C@H](C)C(=O)N[C@H](C)C(=O)N[C@H](C)C(=O)N(CCCCN(C)C(=O)CCCOc1cccc(-c2nc3cc(-c4nc5cc(N6CCN(C)CC6)ccc5[nH]4)ccc3[nH]2)c1)CC(N)=O", "values": [{"measurement": "Activity", "setting": "r(CUG) repeat expansion [1]", "value": "Active"}, {"measurement": "Drug uptake", "setting": "[2]", "value": "Active"}, {"measurement": "Activity", "setting": "r(CUG) repeat expansion [3]", "value": "inactive"}, {"measurement": "Drug uptake", "setting": "[4]", "value": "Active"}]}, {"smiles": "Cc1c(N)nc([C@H](CC(N)=O)NC[C@H](N)C(N)=O)nc1C(=O)N[C@H](C(=O)N[C@H](C)[C@@H](O)[C@H](C)C(=O)N[C@H](C(=O)NCCc1nc(-c2nc(C(=O)NCCCNCCCCN)cs2)cs1)[C@@H](C)O)[C@@H](O[C@@H]1O[C@@H](CO)[C@@H](O)[C@H](O)[C@@H]1O[C@@H]1O[C@H](CO)[C@@H](O)[C@H](OC(N)=O)[C@@H]1O)c1cnc[nH]1", "values": [{"measurement": "fold change (FC)", "setting": "[5]", "value": 6}]}, {"smiles": "CN1CCN(c2ccc3[nH]c(-c4ccc5[nH]c(-c6cccc(OCCCC(=O)N(C)CCCCN(CC(N)=O)C(=O)[C@H](Cc7ccc(O)cc7)NC(=O)[C@H](Cc7ccc(O)cc7)NC(=O)[C@H](Cc7ccc(O)cc7)NC(=O)[C@H](Cc7ccc(O)cc7)NC(=O)CCCOc7cccc(-c8nc9ccc(-c%10nc%11ccc(N%12CCN(C)CC%12)cc%11[nH]%10)cc9[nH]8)c7)c6)nc5c4)nc3c2)CC1", "values": [{"measurement": "Activity", "setting": "[6]", "value": "Toxic"}]}, {"smiles": "CN1CCN(c2ccc3[nH]c(-c4ccc5[nH]c(-c6cccc(OCCCC(=O)N(C)CCCCN(CC(N)=O)C(=O)[C@@H]7C[C@@H](O)CN7C(=O)[C@@H]7C[C@@H](O)CN7C(=O)[C@@H]7C[C@@H](O)CN7C(=O)[C@@H]7C[C@@H](O)CN7C(=O)CCCOc7cccc(-c8nc9ccc(-c%10nc%11ccc(N%12CCN(C)CC%12)cc%11[nH]%10)cc9[nH]8)c7)c6)nc5c4)nc3c2)CC1", "values": [{"measurement": "Activity", "setting": "r(CUG) repeat expansion [1]", "value": "Active"}, {"measurement": "Activity", "setting": "r(CUG) repeat expansion [3]", "value": "inactive"}, {"measurement": "Drug uptake", "setting": "[4]", "value": "Active"}, {"measurement": "Drug uptake", "setting": "[7]", "value": "Active"}]}]}
